From US11840532B2, “Modulators of THR-β and methods of use thereof” (ALIGOS THERAPEUTICS, INC., priority 2020, dated 2023) come the findings set out here.

Assay [1] addresses T1, human thyroid receptor alpha ligand-binding domain (THRα) (Homo sapiens, UniProt P10827).
T1 construct: purchased Invitrogen
Kind of assay: THR Biochemical Assay (Assay 1): TR-FRET thyroid receptor coactivator assay, alpha LBD. To be noted: TR-FRET coactivator recruitment; for Emax: read-out: Activity category Assay 1 THRα (Emax); for EC50: agonist EC50, read-out: Activity category Assay 1 THRα (EC50). From the text:
(§1) THR Biochemical Assay (sAsay 1)
(§2) The TR-FRET thyroid receptor beta coactivator assay was used with slight, optimized modifications of the manufacturer's protocol (Invitrogen). The assay uses a terbium-labeled anti-GST antibody, a glutathione-S-transferase (GST) tagged human thyroid receptor, beta or alpha, ligand-binding domain (LBD), and a fluorescein labeled SRC2-2 coactivator peptide. The antibody interacts with the LBD, where the agonist also binds, resulting in increased affinity for the SRC2-2 coactivator peptide causing energy transfer of the acceptor fluorophore and a FRET emission shift from 495 to 520 nm. The energy transfer is detected as an increase in the fluorescence emission of the fluorescein acceptor, and a decrease in the fluorescence emission of the terbium donor. The assay is performed in a 384-well black plate in a final volume of 20 μL. Serial dilution of various test agonists was performed in DMSO (1% final DMSO concentration) and added to the test plate. Thyroid receptor beta LBD is added to the plate at a final concentration of 1 nM, followed by the mixture of the fluorescein labeled SRC2-2 coactivator peptide, and the terbium-labeled anti-GST antibody at final concentrations of 200 nM and 2 nM respectively. The assay is incubated for 1 h at rt protected from light. The TR-FRET is then measured on a Victor multilabel reader (Perkin Elmer) using an excitation wavelength of 340 nm with emission filters of 495 nm and 520 nm. The assay is quantified by expressing a ratio (520:495) of the intensities, and the resulting activation curves; EC50 values were generated using a sigmoidal dose response (variable slope) equation in GraphPad™ Prism 8.0.
(In general: TR-FRET usually uses a lanthanide donor and a delayed reading to cut background.)

The target of assay [2] is T2, human thyroid receptor beta ligand-binding domain (THRβ) (Homo sapiens, UniProt P10828).
T2 construct: purchased Invitrogen
T2 sequence (P10828 217-461 limits assumed): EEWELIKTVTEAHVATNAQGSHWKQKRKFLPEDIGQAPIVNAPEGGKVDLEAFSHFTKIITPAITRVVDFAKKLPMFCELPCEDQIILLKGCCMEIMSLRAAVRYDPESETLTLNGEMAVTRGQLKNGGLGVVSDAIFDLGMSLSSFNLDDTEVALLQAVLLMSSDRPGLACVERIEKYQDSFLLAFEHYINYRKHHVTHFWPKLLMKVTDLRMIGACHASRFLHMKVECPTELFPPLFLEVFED
Kind of assay: THR Biochemical Assay (Assay 1): TR-FRET thyroid receptor beta coactivator assay. The following applies: TR-FRET coactivator recruitment, THRβ LBD; for Emax: read-out: Activity category Assay 1 THRβ (Emax); for EC50: agonist EC50, read-out: Activity category Assay 1 THRβ (EC50).
From the text: as §1, §2

Assay [3] relates to Huh-7 cells. Kind of assay: Huh-7 Differential Gene Expression (Assay 2): CPT1A RT-qPCR. The format is cell-based. To be noted: Homo sapiens, CPT1A gene expression in Huh-7 cells, 24 hr treatment, TH-depleted DMEM; for EC50: read-out: Activity category Assay 2 EC50; for Emax: read-out: Activity category Assay 2 Emax. The protocol: Huh-7 Differential Gene Expression (Assay 2)
Fetal bovine serum (FBS) was incubated with washed resin (50 mg resin/mL FBS; resin weight is dry weight of resin prior to washing) for 5 hr at room temperature on a rotor. The FBS was separated from the resin via centrifugation and incubated with new, washed resin for 18h at room temperature on a rotor.
Cell Culture and Drug Treatment
Huh-7 cells were cultured in DMEM (10-013-CM, Corning) supplemented with 10% FBS and 1% Pen-Strep at 37° C. under 5% CO2. When 70-80% confluence was reached, the cells were removed by trypsinization. The medium was aspirated from the cell culture dish, the cell monolayer was washed with 1× PBS, and 0.05% trypsin, 0.53 mM EDTA (25-052-CV, Corning) solution was added to the dish. After 3 min incubation, the cells were detached completely by repeatedly pipetting solution onto the monolayer. Equal volume of DMEM supplemented with 10% rFBS and 1% Pen-Strep (TH-depleted DMEM) was added to the dish to inactivate the trypsin. The cell suspension was centrifuged at 350×g at room temperature for 3 min. The supernatant was aspirated out and the cell pellet was resuspended in TH-depleted DMEM. […] After 24 hr incubation, the media was replaced with treatment media. All compounds were serially diluted in DMSO and final concentrations were reached by dilution in TH-depleted DMEM (0.1% DMSO). The cells were incubated in treatment media for 24 hr. Treatments were performed in biological duplicates.
After 24 h in treatment media, the cells were lysed directly on the culture plates and cDNA was produced using the TaqMan™ Fast Advanced Cells-to-CT™ Kit (A35374, Invitrogen) and following the manufacturer's protocol. RT-qPCR for CPT1A (Hs00912671_m1) and two housekeeping genes, ACTB (Hs01060665_g1) and TFG (Hs02832013_g1), was performed using TaqMan™ Fast Advanced Master Mix. RT-qPCR reactions were run on the qTOWER^3 84 G (Analytik Jena) in technical duplicates.
ΔRn values were obtained from the qPCRsoft384 1.0 software and CPT1A gene expression was quantified via the 2ΔΔCt method. Dose-response curves were generated using GraphPad Prism 8 using four parameter logistic equation without top constraint to derive EC50 and Emax.

A word on the Emax: it is the size of the effect at its maximum, as opposed to the concentration needed. By EC50 is commonly meant the concentration giving half of the maximal effect.

T1 sequence (P10827 163-410 isoform P10827-2 limits assumed, other chains not shown): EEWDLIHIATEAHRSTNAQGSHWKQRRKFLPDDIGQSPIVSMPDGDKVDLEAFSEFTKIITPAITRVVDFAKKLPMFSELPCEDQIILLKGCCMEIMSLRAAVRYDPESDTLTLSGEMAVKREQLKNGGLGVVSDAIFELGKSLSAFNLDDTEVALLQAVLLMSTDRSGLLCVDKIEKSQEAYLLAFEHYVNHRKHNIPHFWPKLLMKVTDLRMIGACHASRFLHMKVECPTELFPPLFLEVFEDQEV

Take `Cc1cc(OCC(=O)O)c(C)c(C)c1Cc1ccc2[nH]cc(C(C)C)c2n1` [Compound 1, 2-(4-((3-isopropyl-1H-pyrrolo[3,2-b]pyridin-5-yl)methyl)-2,3,5-trimethylphenoxy)acetic acid]: the maximal response (Emax) in assay [1] was below 50%; in assay [2] it was below 50%; in assay [3] it was above 75%. For the same molecule, the figures for the 50% effective concentration (EC50) in assay [1], in assay [2] and in assay [3] were 250 to 1000 nM, below 50 nM and 100 to 1000 nM, respectively.
With `Cc1cc(OCC(=O)O)cc(C)c1Cc1ccc2[nH]cc(C(C)C)c2n1` [Compound 2, 2-(4-((3-isopropyl-1H-pyrrolo[3,2-b]pyridin-5-yl)methyl)-3,5-dimethylphenoxy)acetic acid], the figures for the Emax in assay [1], in assay [2] and in assay [3] were below 50%, below 50% and above 75%, respectively. The figures for the EC50 in assay [1], in assay [2] and in assay [3] were 50 to 250 nM, below 50 nM and below 100 nM, respectively.
For `Cc1cc(NC(=O)c2noc(=O)[nH]2)cc(C)c1Cc1ccc2[nH]cc(C(C)C)c2n1` [Compound 3, N-(4-((3-isopropyl-1H-pyrrolo[3,2-b]pyridin-5-yl)methyl)-3,5-dimethylphenyl)-5-oxo-4,5-dihydro-1,2,4-oxadiazole-3-carboxamide], in assay [1], the Emax is below 50% and the EC50 is below 50 nM. In addition, in assay [2], the Emax is below 50% and the 50% effective concentration (EC50) was below 50 nM.
On to `Cc1cc(NC(=O)C(=O)O)cc(C)c1Cc1ccc2[nH]cc(C(C)C)c2n1` [Compound 4, 2-((4-((3-isopropyl-1H-pyrrolo[3,2-b]pyridin-5-yl)methyl)-3,5-dimethylphenyl)amino)-2-oxoacetic acid], for which, in assay [1], the Emax is below 50% and the EC50 was below 50 nM. In assay [2], the Emax fell in the range of 50 to 75% and the EC50 was below 50 nM.
For `CCOC(=O)C(=O)Nc1cc(C)c(Cc2ccc3[nH]cc(C(C)C)c3n2)c(C)c1` [Compound 5, ethyl 2-((4-((3-isopropyl-1H-pyrrolo[3,2-b]pyridin-5-yl)methyl)-3,5-dimethylphenyl)amino)-2-oxoacetate], in assay [1], the maximal effect (Emax) was below 50% and the EC50 is below 50 nM. Besides, in assay [2], the Emax was below 50% and the EC50 is below 50 nM.
Regarding `Cc1nc(OCC(=O)O)c(C)c(C)c1Cc1ccc2[nH]cc(C(C)C)c2n1` [Compound 6, [[5-([3-isopropyl-1H-pyrrolo[3,2-b]pyridin-5-yl]methyl)-3,4,6-trimethylpyridin-2-yl]oxy]acetic acid], the Emax in assay [1], in assay [2] and in assay [3] was below 50% each time. The values for the EC50 in assay [1], in assay [2] and in assay [3] were 1000 to 25000 nM, 50 to 250 nM and 100 to 1000 nM, respectively.
Regarding `Cc1cc(OC(C)C(=O)O)c(C)c(C)c1Cc1ccc2[nH]cc(C(C)C)c2n1` (stereo not drawn) [Compound 7, 2-(4-((3-isopropyl-1H-pyrrolo[3,2-b]pyridin-5-yl)methyl)-2,3,5-trimethylphenoxy)propanoic acid], the Emax in assay [1] and in assay [2] was below 50% each time. Also, the EC50 in assay [1] is above 25000 nM; in assay [2] it was 1000 to 25000 nM.
Take `Cc1cc(OC(C)(C)C(=O)O)c(C)c(C)c1Cc1ccc2[nH]cc(C(C)C)c2n1` [Compound 8, 2-(4-((3-isopropyl-1H-pyrrolo[3,2-b]pyridin-5-yl)methyl)-2,3,5-trimethylphenoxy)-2-methylpropanoic acid]: in assay [1], the Emax was below 50% and the EC50 is above 25000 nM. For the same molecule, in assay [2], the maximal response (Emax) was below 50% and the EC50 is below 50 nM.
`Cc1cc(OC(F)C(=O)O)c(C)c(C)c1Cc1ccc2[nH]cc(C(C)C)c2n1` (stereo not drawn) [Compound 9, 2-fluoro-2-(4-((3-isopropyl-1H-pyrrolo[3,2-b]pyridin-5-yl)methyl)-2,3,5-trimethylphenoxy)acetic acid]: the Emax in assay [1] and in assay [2] was below 50% in each case. In addition, the results for the EC50 in assay [1] and in assay [2] were above 25000 nM and below 50 nM, respectively.
Take `Cc1cc(OCc2nn[nH]n2)c(C)c(C)c1Cc1ccc2[nH]cc(C(C)C)c2n1` [Compound 10, 5-(4-((2H-tetrazol-5-yl)methoxy)-2,3,6-trimethylbenzyl)-3-isopropyl-1H-pyrrolo[3,2-b]pyridine]: in assay [1], the Emax was below 50% and the EC50 is above 25000 nM. Besides, in assay [2], the Emax is below 50% and the EC50 was below 50 nM.
For the molecule `Cc1cc(OCc2noc(=O)[nH]2)c(C)c(C)c1Cc1ccc2[nH]cc(C(C)C)c2n1` [Compound 11, 3-((4-((3-isopropyl-1H-pyrrolo[3,2-b]pyridin-5-yl)methyl)-2,3,5-trimethylphenoxy)methyl)-1,2,4-oxadiazol-5(4H)-one], the Emax in assay [1], in assay [2] and in assay [3] was below 50% in each case. Besides, the EC50 in assay [1] is above 25000 nM; in assay [2], below 50 nM; in assay [3], 100 to 1000 nM.
Turning to `N[C@@H](Cc1cc(I)c(Oc2ccc(O)c(I)c2)c(I)c1)C(=O)O` [Reference(T3), triiodothyronine, reference compound], in assay [3], the EC50 is below 100 nM and the Emax was above 75%.
